Like-named read-outs stand apart in the source and are kept apart here.
How the values were obtained:
[1] = system: rat aorta fragments; assay: In vitro angiogenesis inhibition assay; assay type: cell-based; details: control 90
Method: The ability of linked cyclitol compounds to inhibit angiogenesis in vitro was conducted using the assay essentially as described in the present applicant's International Patent Application No. PCT/AU95/00105 (Publication No. WO 95/23968), the entire content of which is incorporated herein by cross reference. The only changes to the procedure described in PCT/AU95/00105 were that the assays were conducted using rat aorta fragments rather than human placental vessel fragments.
All potential inhibitors were tested at 100 μg/ml with PI-88 also being tested at 10 μg/ml. The tabulated data represent means of 4 culture wells for each experiment. Significant inhibition of angiogenesis is indicated with a single asterisk while double asterisks denote highly significant inhibition.
The compounds were also tested at the same purity as in Example 15 save that the second entries for 4b and 4j relate to data obtained with higher purity compounds than the compounds used for the first data entries of each.

[2] = target: bFGF (Homo sapiens, UniProt P09038); assay: Biacore biosensor: inhibition of bFGF binding to immobilised heparin and heparan sulfate; details: for Inhibition of binding of bFGF (HS) / Inhibition of binding of bFGF (Hep) / inhibition at 0.034 µM: inhibitor 0.034 μM, bFGF 0.034 μM
Method: (§1) Assays were performed using a Biacore™ 2000 optical biosensor obtained from Biacore AB, Uppsala, Sweden. The biosensor was operated in accordance with the manufacturer's instructions. Briefly, neutravidin was covalently coupled to the surface of CM5 chips of the biosensor and then either biotinylated heparin (1 μg/ml) or biotinylated heparan sulfate ([…]) bound to the immobilised neutravidin. Mixtures of a test compound and a growth factor or other effector compound were preincubated for 2 to 5 minutes and the mixtures then added to individual biosensor cuvettes. Binding of growth factor or effector compound to the heparin or heparan sulfate was then monitored for approximately 5 minutes with the biosensor.
(§2) The tabulated values are the IC50 in μM or % inhibition of binding of the growth factor to the immobilised heparan sulfate (HS) or heparin.

[3] = target: aFGF (Homo sapiens, UniProt P05230); assay: Biacore biosensor: inhibition of aFGF binding to immobilised heparin and heparan sulfate; details: inhibitor 0.034 μM, aFGF 0.025 μM
Method: as §1, §2

[4] = target: T1, human platelet heparanase (Homo sapiens, UniProt Q9Y251); assay: Heparanase inhibition, 3H-radiolabelled HS cleavage assay; assay type: biochemical; details: for Relative inhibition (%) / inhibition: based on a comparison with heparin with 100% inhibition at 30 μg/ml; for EC50: heparanase inhibition; for inhibition: read-out: Relative inhibition (%)
T1 construct: 10 ng of purified human platelet heparanase; from tissue; host or cells: human platelets
T1 sequence (Q9Y251 158-543 limits assumed): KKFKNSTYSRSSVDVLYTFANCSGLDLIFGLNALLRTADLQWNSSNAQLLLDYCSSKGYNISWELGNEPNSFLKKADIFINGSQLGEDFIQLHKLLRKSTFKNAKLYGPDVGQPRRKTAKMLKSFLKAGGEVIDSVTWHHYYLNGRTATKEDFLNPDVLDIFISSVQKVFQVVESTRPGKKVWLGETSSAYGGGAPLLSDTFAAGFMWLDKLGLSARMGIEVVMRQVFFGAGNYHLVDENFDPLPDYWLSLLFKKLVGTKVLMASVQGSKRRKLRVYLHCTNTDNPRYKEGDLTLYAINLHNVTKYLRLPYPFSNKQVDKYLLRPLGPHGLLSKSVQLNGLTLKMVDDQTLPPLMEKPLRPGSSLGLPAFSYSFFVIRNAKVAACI
T1 sequence (Q9Y251 36-109 limits assumed): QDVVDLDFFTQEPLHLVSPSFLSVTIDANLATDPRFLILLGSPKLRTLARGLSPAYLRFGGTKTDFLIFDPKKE
Method: Briefly, to an incubation mixture of […] containing ^3H-radiolabelled porcine mucosal HS […], 50 mM-sodium acetate buffer, pH 5.0, […] bovine serum albumin and the inhibitor to be tested, was added 10 ng of purified human platelet heparanase and the mixture incubated for 30 min. The reaction was terminated by freezing the assay tubes. The substrate was separated from the cleavage products on minicolumns of sepharose-bound histidine-rich glycoprotein (Freeman, C., and Parish, C. R. [1997], supra).
Inhibitory activity is based on a comparison with heparin with 100% inhibition at 30 μg/ml. The compounds were also tested at the same purity as in Example 15.

[5] = target: T2, IL-8 (Homo sapiens, UniProt P10145); assay: Biacore biosensor: inhibition of IL-8 binding to immobilised heparin and heparan sulfate; details: inhibitor 1.0 μM, IL-8 0.068 μM
T2 sequence (P10145 21-99): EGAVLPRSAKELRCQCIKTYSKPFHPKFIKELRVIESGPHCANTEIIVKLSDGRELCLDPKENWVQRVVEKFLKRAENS
Method: as §1

[6] = target: T3, VEGF (Homo sapiens, UniProt P15692); assay: Biacore biosensor: inhibition of VEGF binding to immobilised heparin and heparan sulfate; details: inhibitor 0.034 μM, VEGF 0.025 μM
T3 sequence (P15692 27-191 isoform P15692-4): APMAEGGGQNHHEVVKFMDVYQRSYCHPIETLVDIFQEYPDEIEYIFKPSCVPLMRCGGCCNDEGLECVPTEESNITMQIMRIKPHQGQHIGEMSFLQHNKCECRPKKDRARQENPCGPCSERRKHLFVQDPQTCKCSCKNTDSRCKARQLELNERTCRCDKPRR
Method: as §1, §2

[7] = target: T4, human leukocyte Cathepsin G (Homo sapiens, UniProt P08311); assay: Cathepsin G inhibition, fluorogenic substrate, 96 well assay; assay type: biochemical; details: human leukocyte cathepsin G 100 ng, 37° C., 60 min, pH 6.6; for IC50: read-out: Amount for 50% inhibition (converted)
T4 construct: human leukocyte Cathepsin G (100 ng protein); from tissue; host or cells: human leukocytes
T4 sequence (P08311 21-244): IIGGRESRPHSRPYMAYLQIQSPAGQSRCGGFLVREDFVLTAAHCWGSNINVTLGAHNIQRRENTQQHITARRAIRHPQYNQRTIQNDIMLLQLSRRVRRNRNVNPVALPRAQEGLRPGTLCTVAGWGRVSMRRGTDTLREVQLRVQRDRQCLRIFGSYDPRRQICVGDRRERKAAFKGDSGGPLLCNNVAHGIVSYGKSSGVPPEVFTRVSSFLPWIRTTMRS
Method: Cathepsin G activity was determined using a 96 well assay format in PVC microtitre U-bottom plates with activity determination by a fluorescence plate reader. Briefly, within a total incubation volume of 40 μl, human leukocyte Cathepsin G (100 ng protein) was added to a mixture of inhibitor and the fluorogenic substrate MeOSuc-ala-ala-pro-phe-AMAC in 50 mM-NaOAc buffer, pH 6.6 containing 50 mM NaCl and 0.1% (v/v) Brij 35. The mixture was incubated at 37° C. for 60 min, the reaction stopped by the addition of 40 μl of 250 mM acetic acid and the fluorescence determined with excitation at 360 nm and emitted light measured at 460 nm.
In this table, the linked cyclitol compound identifications are the same as those given in Section A above where the structures of the compounds are also given. With regard to the purity rating, a greater number of asterisks signifies a greater degree of purity with five asterisks signifying an essentially pure compound. The cathepsin G inhibition data are the concentrations of compounds required to inhibit the enzyme by 50%.

[8] = inhibitor 100 μg/ml, means of 4 culture wells per experiment, * significant, ** highly significant inhibition
[9] = immobilised heparan sulfate, read-out: IC50, inhibition of bFGF binding (HS)
[10] = immobilised heparin, read-out: IC50, inhibition of bFGF binding (Hep)
[11] = immobilised heparan sulfate, read-out: Inhibition of binding of bFGF (HS)
[12] = immobilised heparin, read-out: Inhibition of binding of bFGF (Hep)
[13] = immobilised heparan sulfate, read-out: Inhibition of binding of aFGF (HS)
[14] = immobilised heparin, read-out: Inhibition of binding of aFGF (Hep)
[15] = immobilised heparan sulfate, read-out: Inhibition of binding of IL-8 (HS)
[16] = immobilised heparin, read-out: Inhibition of binding of IL-8 (Hep)
[17] = immobilised heparan sulfate, read-out: Inhibition of binding of VEGF (HS)
[18] = immobilised heparin, read-out: Inhibition of binding of VEGF (Hep)

Chain of aFGF (P05230 whole entry, species assumed): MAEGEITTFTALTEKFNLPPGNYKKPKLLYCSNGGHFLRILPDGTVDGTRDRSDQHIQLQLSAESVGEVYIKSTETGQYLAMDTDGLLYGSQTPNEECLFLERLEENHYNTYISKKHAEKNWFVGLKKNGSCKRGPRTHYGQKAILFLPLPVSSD
Chain of bFGF (P09038 134-288 limits assumed, species assumed): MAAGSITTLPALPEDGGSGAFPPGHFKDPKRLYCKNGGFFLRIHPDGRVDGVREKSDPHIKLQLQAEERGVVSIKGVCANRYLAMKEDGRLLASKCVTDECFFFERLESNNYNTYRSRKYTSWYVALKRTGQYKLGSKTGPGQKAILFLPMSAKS

| Compound | % Growth [1, 8] | Inhibition of binding of bFGF (HS) ([2]; immobilised heparan sulfate) | IC50 [2, 9] [nM] | Inhibition of binding of bFGF (Hep) ([2]; immobilised heparin) | IC50 [2, 10] [nM] | Inhibition of binding of aFGF (HS) ([3]; immobilised heparan sulfate) | Inhibition of binding of aFGF (Hep) ([3]; immobilised heparin) | Relative inhibition (%) [4] [%] | EC50 [4] [µg/mL] | Inhibition of binding of IL-8 (HS) ([5]; immobilised heparan sulfate) | Inhibition of binding of IL-8 (Hep) ([5]; immobilised heparin) | Inhibition of binding of VEGF (HS) ([6]; immobilised heparan sulfate) | Inhibition of binding of VEGF (Hep) ([6]; immobilised heparin) | inhibition at 0.034 µM [2, 11] [%] | inhibition at 0.034 µM [2, 12] [%] | inhibition at 0.034 µM [3, 13] [%] | inhibition at 0.034 µM [3, 14] [%] | inhibition [4] [%] | EC50 ([4]; read-out: EC50 (converted)) [nM] | inhibition at 1 µM [5, 15] [%] | other results |
| --- | --- | --- | --- | --- | --- | --- | --- | --- | --- | --- | --- | --- | --- | --- | --- | --- | --- | --- | --- | --- | --- |
| O=S(=O)(O)OC1C(OS(=O)(=O)O)C(OS(=O)(=O)O)C(N(Cc2ccc(CN(C3C(OS(=O)(=O)O)C(OS(=O)(=O)O)C(OS(=O)(=O)O)C(OS(=O)(=O)O)C3OS(=O)(=O)O)C3C(OS(=O)(=O)O)C(OS(=O)(=O)O)C(OS(=O)(=O)O)C(OS(=O)(=O)O)C3OS(=O)(=O)O)cc2)C2C(OS(=O)(=O)O)C(OS(=O)(=O)O)C(OS(=O)(=O)O)C(OS(=O)(=O)O)C2OS(=O)(=O)O)C(OS(=O)(=O)O)C1OS(=O)(=O)O (centres unmarked) [Compound 5e] | 60* % | – | – | – | – | – | – | – | – | – | – | – | – | – | – | – | – | – | – | – | – |
| O=S(=O)(O)OC1C=CC(N(Cc2cccc(CN(C3C=CC(OS(=O)(=O)O)C(OS(=O)(=O)O)C3OS(=O)(=O)O)C3C=CC(OS(=O)(=O)O)C(OS(=O)(=O)O)C3OS(=O)(=O)O)c2)C2C=CC(OS(=O)(=O)O)C(OS(=O)(=O)O)C2OS(=O)(=O)O)C(OS(=O)(=O)O)C1OS(=O)(=O)O (centres unmarked) [Compound 4d] | 67% | 68% (HS) | 23 | 52% (Hep) | 32 | 65% (HS) | 65% (Hep) | 75 | 15 | 50% (HS) | 57% (Hep) | 40% (HS) | 44% (Hep) | – | – | – | – | – | – | – | Amount for 50% inhibition [7]: 0.43 µg/mL |
| O=S(=O)(O)O[C@H]1[C@H](OS(=O)(=O)O)[C@@H](N(CCCCCCCCCN([C@H]2C=C[C@@H](OS(=O)(=O)O)[C@@H](OS(=O)(=O)O)[C@@H]2OS(=O)(=O)O)[C@H]2C=C[C@@H](OS(=O)(=O)O)[C@@H](OS(=O)(=O)O)[C@@H]2OS(=O)(=O)O)[C@H]2C=C[C@@H](OS(=O)(=O)O)[C@@H](OS(=O)(=O)O)[C@@H]2OS(=O)(=O)O)C=C[C@H]1OS(=O)(=O)O [Compound 4j] | – | – | – | – | – | – | – | – | – | – | – | – | – | 43 | 46 | 31 | 31 | 73 | 6130 | 65 | inhibition at 1 µM [5, 16]: 62%; inhibition at 0.034 µM [6, 17]: 54%; inhibition at 0.034 µM [6, 18]: 64%; IC50 [7]: 91.9 nM |
| phosphomannopentaose sulfate [PI-88, reference compound] | 45** % | 56% (HS) | 25 | 50% (Hep) | 34 | 33% (HS) | 96% (Hep) | 100 | 2.9 | 0% | 10% | 65% (HS) | 29% (Hep) | – | – | – | – | – | – | – | % Growth ([1]; inhibitor 10 μg/ml, * significant inhibition): 64* %; Inhibition (%) at 10 μg/ml ([4]; 10 μg/ml): 90% |
| O=S(=O)(O)O[C@H]1[C@H](OS(=O)(=O)O)[C@@H](N(CCCCCCCN([C@H]2C=C[C@@H](OS(=O)(=O)O)[C@@H](OS(=O)(=O)O)[C@@H]2OS(=O)(=O)O)[C@H]2C=C[C@@H](OS(=O)(=O)O)[C@@H](OS(=O)(=O)O)[C@@H]2OS(=O)(=O)O)[C@H]2C=C[C@@H](OS(=O)(=O)O)[C@@H](OS(=O)(=O)O)[C@@H]2OS(=O)(=O)O)C=C[C@H]1OS(=O)(=O)O [Compound 4h] | – | – | – | – | – | – | – | – | – | – | – | – | – | 48 | 40 | 30 | 28 | 48 | 20000 | 54 | inhibition at 10 µg/mL ([4]; read-out: Inhibition (%) at 10 μg/ml): 33%; inhibition at 1 µM [5, 16]: 52%; inhibition at 0.034 µM [6, 17]: 55%; inhibition at 0.034 µM [6, 18]: 68%; IC50 [7]: 318 nM |

— patent US7173019B2, “Linked cyclitols and their polysulfated derivatives” (The Australian National University, priority 2001, dated 2007)
